# Assay results from PMC4612780, “Divergent Inhibitor Susceptibility among Airway Lumen-Accessible Tryptic Proteases” (PLoS ONE, 2015).
# Columns and labels:
# Assay in all cases: chromogenic hydrolysis of QAR, […] nm, initial rates
# Type in all cases: biochemical
# [1] = target: T1, HAT; airway trypsin-like protease (Homo sapiens, UniProt O60235); details: 1 mM QAR, pH 7.6, 120 mM NaCl, 0.05% Tween 20, 100 ug/ml heparin, 37 C, HAT 0.72 nM
# T1 construct: gene TMPRSS11D; recombinant soluble catalytic domain (R&D Systems)
# T1 sequence (O60235 187-418 limits assumed): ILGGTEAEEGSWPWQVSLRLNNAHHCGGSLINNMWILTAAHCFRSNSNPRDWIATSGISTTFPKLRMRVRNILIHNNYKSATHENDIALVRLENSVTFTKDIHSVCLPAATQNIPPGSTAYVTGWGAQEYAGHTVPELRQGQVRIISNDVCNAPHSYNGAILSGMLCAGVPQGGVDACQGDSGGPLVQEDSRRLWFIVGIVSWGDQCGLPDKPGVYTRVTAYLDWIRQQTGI
# [2] = target: T2, β-tryptase; human lung (β) tryptase; details: 1 mM QAR, pH 7.6, 120 mM NaCl, 0.05% Tween 20, 100 ug/ml heparin, 37 C, tryptase 0.70 nM
# T2 construct: gene TPSAB1; native soluble tetramer from human lung (EMD-Millipore)
# matriptase [3] = target: T3, matriptase (Homo sapiens, UniProt Q9Y5Y6); details: 1 mM QAR, pH 7.6, 120 mM NaCl, 0.05% Tween 20, 100 ug/ml heparin, 37 C, matriptase 2.4 nM
# T3 construct: gene ST14
# T3 sequence (Q9Y5Y6 615-855 limits assumed): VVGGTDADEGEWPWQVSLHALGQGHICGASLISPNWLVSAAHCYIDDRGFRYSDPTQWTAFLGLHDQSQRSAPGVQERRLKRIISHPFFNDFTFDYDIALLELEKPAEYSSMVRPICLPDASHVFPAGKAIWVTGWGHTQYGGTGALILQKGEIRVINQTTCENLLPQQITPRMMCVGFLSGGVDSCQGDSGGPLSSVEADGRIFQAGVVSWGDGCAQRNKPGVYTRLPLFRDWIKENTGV
# [4] = target: T1, HAT; airway trypsin-like protease; details: 1 mM QAR, pH 7.6, 120 mM NaCl, 0.05% Tween 20, 100 ug/ml heparin, 37 C; HAT 0.72 nM; unreliable (beyond tested range 1.6-20 uM)
# matriptase [5] = target: T3, matriptase; details: 1 mM QAR, pH 7.6, 120 mM NaCl, 0.05% Tween 20, 100 ug/ml heparin, 37 C; matriptase 2.4 nM; unreliable (beyond tested range 0.24-1200 uM)
# prostasin = target: T4, prostasin (Homo sapiens, UniProt Q16651); details: 1 mM QAR, pH 7.6, 120 mM NaCl, 0.05% Tween 20, 100 ug/ml heparin, 37 C, prostasin 80 nM
# T4 construct: gene PRSS8; recombinant soluble catalytic domain (R&D Systems)
# T4 sequence (Q16651 33-322 limits assumed): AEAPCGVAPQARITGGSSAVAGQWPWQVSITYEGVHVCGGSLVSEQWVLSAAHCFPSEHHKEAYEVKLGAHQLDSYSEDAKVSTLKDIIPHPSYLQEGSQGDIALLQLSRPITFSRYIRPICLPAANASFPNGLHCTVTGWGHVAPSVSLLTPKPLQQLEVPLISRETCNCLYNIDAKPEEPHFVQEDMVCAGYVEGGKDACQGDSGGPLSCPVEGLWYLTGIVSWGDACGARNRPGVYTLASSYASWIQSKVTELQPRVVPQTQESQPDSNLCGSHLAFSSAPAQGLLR
smiles,measurement,setting,value
"N=C(N)c1ccc2[nH]c(Cc3nc4ccc(C(=N)N)cc4[nH]3)nc2c1 [BABIM, bis(5-amidino-2-benzimidazolyl)methane]",HAT,[1]; brackets 95% CI,"71 [48, 105] [inhibitor]/[enzyme] ratio (dimensionless)"
same,Tryptase,[2],"108 [78, 149] [inhibitor]/[enzyme] ratio (dimensionless)"
same,Matriptase,matriptase [3],"0.98 [0.87, 1.11] [inhibitor]/[enzyme] ratio (dimensionless)"
N=C(N)c1ccccc1 [benzamidine],HAT,[4],"1.4e6 [2.0e5, 9.6e6] [inhibitor]/[enzyme] ratio (dimensionless)"
same,Matriptase,matriptase [5],"1.1e6 [9.4e5, 1.2e6] [inhibitor]/[enzyme] ratio (dimensionless)"
same,Tryptase,[2],"4.7e4 [3.4e4, 6.5e4] [inhibitor]/[enzyme] ratio (dimensionless)"
CN(C)C(=O)COC(=O)Cc1ccc(OC(=O)c2ccc(NC(=N)N)cc2)cc1 [camostat],Prostasin,prostasin; covalent (acyl intermediate),"14 [7.7, 25] [inhibitor]/[enzyme] ratio (dimensionless)"
same,HAT,[1]; covalent (acyl intermediate),"20 [16, 24] [inhibitor]/[enzyme] ratio (dimensionless)"
same,Tryptase,[2]; covalent (acyl intermediate),"5.2 [3.7, 7.2] [inhibitor]/[enzyme] ratio (dimensionless)"
same,Matriptase,matriptase [3]; covalent (acyl intermediate),"96 [80, 115] [inhibitor]/[enzyme] ratio (dimensionless)"
N=C(N)Nc1ccc(C(=O)Oc2ccc3cc(C(=N)N)ccc3c2)cc1 [nafamostat],Prostasin,prostasin,"11 [5.6, 20] [inhibitor]/[enzyme] ratio (dimensionless)"
same,HAT,[1],"191 [154, 239] [inhibitor]/[enzyme] ratio (dimensionless)"
same,Tryptase,"[2]; covalent, suicide substrate, near-stoichiometric","0.44 [0.29, 0.67] [inhibitor]/[enzyme] ratio (dimensionless)"
